Test results: US9725432B2, “Pyrimidine derivatives for the treatment of bacterial diseases” (JANSSEN R&D IRELAND, priority 2012, dated 2017)
Values after ≈ are worked out from the molar mass of the structure shown.

Columns and labels:
[1] = system: Staphylococcus aureus; experiment: MIC determination of compounds on ECO/PAE/STA in microplates; format: cell-based; settings: lowest concentration with no growth (90% inhibition of growth), 18-20 hours at 37° C., visual, strain not given

SMILES	MIC90 [1]	melting point
COc1ccc(-c2ncc(-c3cccc(C#N)c3)c(C3CCN(CC(C)(C)C#N)CC3)n2)cn1 [Compound 85]	0.125 µg/mL (≈ 0.276 µM)	165 °C
CC(C)(C#N)CN1CCC(c2nc(-c3cncnc3)ncc2-c2cccc(C#N)c2)CC1 [Compound 82]	1 µg/mL (≈ 2.36 µM)	182 °C

Other lines, results leading:

MIC90 [1]	melting point	SMILES
0.125 µg/mL (≈ 0.277 µM)	207 °C	COc1cccc(-c2cnc(-c3ccc(C#N)cc3)nc2C2CCN(CC(C)(C)C#N)CC2)c1 [Compound 86]
0.125 µg/mL (≈ 0.284 µM)	157 to 158 °C	N#Cc1cccc(-c2cnc(-c3ccc(F)cc3)nc2C2CCN(CC(F)(F)F)CC2)c1 [Compound 76]
0.25 µg/mL (≈ 0.565 µM)	75 to 80 °C	CC(C)(C)C(=O)N1CCC(c2nc(-c3ccc(F)cc3)ncc2-c2cccc(C#N)c2)CC1 [Compound 77]
